Key:
Assay type in all cases: binding
[1] = test system: Active Motif #39161, anti-H3K9me3; experiment: Histone peptide microarray, Active Motif 39161; settings: Active Motif 39161 (anti-H3K9me3) hits
Experimental: (§1) Peptide microarrays were fabricated using an Aushon 2470 microarrayer and used as described ([Cornett et al., 2017]) with the following modifications. Protein and antibody hybridization steps were performed in buffer containing 25 mM HEPES pH 7.5, 100 mM NaCl, 0.5% BSA (w/v), and 0.1% NP-40. Slides were washed 3 × 5 min in PBS supplemented with 0.1% Tween-20 between each hybridization step. Antibodies used were primary anti-GST (Sigma #7781, 1:2,000 dilution) and an AlexaFluor 647-labeled secondary antibody (Life Technologies A-21245, 1:5,000 dilution). […] Full lists of peptides queried by array analysis are in Supplementary Table S2.

53BP1 TTD = experiment: Histone peptide microarray, 53BP1 TTD; settings: 53BP1 TTD hits, average signal per peptide
Experimental: as §1

CST 9733 (anti-H3K27me3) = experiment: Histone peptide microarray, CST 9733; settings: histone peptide array signal normalized to the highest peptide average per subarray, hits; CST 9733 LOT:14 dilution 1:5,000
Experimental: as §1

[2] = test system: Abcam #ab8895, anti-H3K4me1; experiment: Histone peptide microarray, Abcam ab8895; settings: Abcam ab8895 (anti-H3K4me1) hits, average signal per peptide
Experimental: as §1

[3] = test system: Millipore #07-449, anti-H3K27me3; experiment: Histone peptide microarray, Millipore 07-449; settings: Millipore 07-449 (anti-H3K27me3) hits, average signal per peptide
Experimental: as §1

Substance | Avg Signal [1] | Avg Signal (53BP1 TTD) | Avg Signal (CST 9733 (anti-H3K27me3)) | Avg Signal [2] | Avg Signal [3]
AR(Me2a)pTK(Me3)QTARK(Ac)STGGK(Ac)APRK(Ac)QL-K(Biot)-NH2 [H3.1R2me2aT3pK4me3K9acK14acK18ac] | 0.0001961 | 0.09934 | 0.0005148 | 0.003812 | 0.005728
PEPAK(Me3)SAPAPKKGSKKAVTKAQKK-Peg-Biot [Peptide H2BK5me3] | 0.03906 | 0.04404 | 0.00351 |  | 0.1635
ARTK(Me3)QTARK(Ac)STGGK(Ac)APRK(Ac)QL-K(Biot)-NH2 [H3.1K4me3K9acK14acK18ac] | 0.004819 | 0.09733 | 0.009625 |  | 0.03443
ARTK(Me3)QTARKSTGGK(Ac)APRK(Ac)QL-K(Biot)-NH2 [H3.1K4me3K14acK18ac] | 0.0136 | 0.09432 | 0.006975 |  | 0.01453
AR(Me2a)TK(Me3)QTARKSTGGKAPRKQL-K(Biot)-NH2 [H3.1R2me2aK4me3] | 0.01254 | 0.09687 | 0.001321 |  | 0.02156
AR(Me2a)TK(Me3)QTARKpSTGGKAPRKQL-K(Biot)-NH2 [H3.1R2me2aK4me3S10p] | 0.007954 | 0.1482 | 0.01157 | 0.0003692 | 0.02048
ARTK(Me3)QTARK(Ac)STGGKAPRKQL-K(Biot)-NH2 [H3.1K4me3K9ac] | 0.02897 | 0.2378 | 0.008895 |  | 0.05697
AR(Me2a)TK(Me3)QTARK(Ac)pSTGGK(Ac)APRK(Ac)QL-K(Biot)-NH2 [H3.1R2me2aK4me3K9acS10pK14acK18ac] | 0.01104 | 0.02248 | 0.001633 |  | 0.0008355
KSAPSTGGVK(Me3)KPHRYKPGT-G-K(Biot)-NH2 [yH3K36me3] |  | 0.1137 | 0.0003217 |  | 
AR(Me)TK(Me3)QTARK(Ac)STGGK(Ac)APRK(Ac)QL-K(Biot)-NH2 [H3.1R2me1K4me3K9acK14acK18ac] | 0.006911 | 0.04917 | 0.009005 | 0.01244 | 0.05381
Ac-SGRGKGGK(Ac)GLGK(Ac)GGAKRHRKVLR-Peg-Biot [Peptide H4K8acK12ac] | 0.0006444 |  | 0.0001351 | 0.002906 | 0.006396
AR(Me2s)TK(Me3)QTARKSTGGKAPRKQL-K(Biot)-NH2 [H3.1R2me2sK4me3] | 0.01035 | 0.1898 | 0.00218 |  | 0.0135
SGRGK(Ac)QGGK(Ac)ARAK(Ac)AK(Ac)TR-Peg-Biot [H2AK5acK9acK13acK15ac(noN-ac)] |  | 0.2522 | 6.218e-5 |  | 
ACitTK(Me3)QTARKSTGGKAPRKQL-K(Biot)-NH2 [H3.1Cit2K4me3] | 0.009245 | 0.1746 | 0.00216 |  | 0.01263
Ac-APRK(Me3)QLATKAARKSAPSTGGVK(Me3)KPHRY-GG-K(Biot)-NH2 [H3.3K18me3K36me3] | 0.4275 | 0.1772 | 0.04154 | 0.006536 | 0.2482
PEPAK(Me2)SAPAPKKGSKKAVTKAQKK-Peg-Biot [Peptide H2BK5me2] |  | 0.1922 | 0.0008674 |  | 

Substance | Avg Signal [1] | Avg Signal (53BP1 TTD) | Avg Signal (CST 9733 (anti-H3K27me3)) | Avg Signal [2] | Avg Signal [3]
Ac-SGCitGK(Ac)QGGKARAKAKTR-Peg-Biot [Peptide H2ACit3K5ac] |  | 0.009599 | 1.355e-5 |  | 
ACitTKQTARKSTGGKAPRKQL-K(Biot)-NH2 [Peptide H3.1Cit2] | 0.002403 | 0.1308 | 0.005497 | 0.01656 | 
ARTK(Me3)QTARKpSTGGKAPRKQL-K(Biot)-NH2 [H3.1K4me3S10p] | 0.0006195 | 0.00608 | 0.002306 |  | 0.003491
ARTKQpTARK(Me3)STGGKAPRKQL-K(Biot)-NH2 [Peptide H3.1T6pK9me3] | 0.3154 | 0.226 | 0.01471 |  | 0.02132
ARTK(Me3)QTARK(Ac)STGGK(Ac)APRKQL-K(Biot)-NH2 [H3.1K4me3K9acK14ac] | 0.01712 | 0.06229 | 0.005042 |  | 0.05366
AR(Me)TK(Me3)QTARKSTGGKAPRKQL-K(Biot)-NH2 [H3.1R2me1K4me3] |  | 0.08379 | 0.002343 | 0.01284 | 0.07195
Ac-SGRGK(But)GGK(But)GLGK(But)GGAKRHRKVLR-Peg-Biot [H4K5butK8butK12but] | 0.01514 |  | 0.0001351 | 0.000718 | 0.01591
ARTK(Me3)QpTARK(Ac)STGGK(Ac)APRK(Ac)QL-K(Biot)-NH2 [H3.1K4me3T6pK9acK14acK18ac] | 0.005164 | 0.03157 | 0.004429 |  | 0.0001463
ARTK(Me3)QTARK(Ac)STGGKAPRK(Ac)QL-K(Biot)-NH2 [H3.1K4me3K9acK18ac] | 0.01916 | 0.0915 | 0.009868 |  | 0.05409
AR(Me2s)TK(Me3)QTARK(Ac)STGGK(Ac)APRK(Ac)QL-K(Biot)-NH2 [H3.1R2me2sK4me3K9acK14acK18ac] | 0.02558 | 0.134 | 0.0007823 |  | 0.02279
ARTK(Ac)QTARK(Ac)STGGK(Ac)APRK(Ac)QL-K(Biot)-NH2 [H3.1K4acK9acK14acK18ac] | 0.05366 | 0.1399 | 0.0003418 |  | 
Ac-SGRGKGGKGLGK(Ac)GGAKRHRKVLR-Peg-Biot [Peptide H4K12ac] | 0.01336 | 0.1511 | 0.000354 | 0.001961 | 
ARTK(Me3)QTARK(Ac)pSTGGKAPRKQL-K(Biot)-NH2 [H3.1K4me3K9acS10p] | 0.01343 | 0.1299 | 0.004944 |  | 0.007736
ARTK(Me3)QpTARKSTGGKAPRKQL-K(Biot)-NH2 [Peptide H3.1K4me3T6p] | 0.02043 | 0.1846 | 0.001818 |  | 0.009429
Ac-GKGGAKRHRKVLRDNIQ-Peg-Biot [H4(11-27)] | 0.04504 | 0.128 | 0.0004161 |  | 
Ac-SGRGKGGKGLGK(Ac)GGAKRHRK(Ac)VLR-Peg-Biot [Peptide H4K12acK20ac] | 0.009155 |  | 0.0004147 | 0.005228 | 0.007438

Reference: article PMC7160673, “A Degenerate Peptide Library Approach to Reveal Sequence Determinants of Methyllysine-Driven Protein Interactions” (Frontiers in Cell and Developmental Biology, 2020)
